Measurements as given in patent US6548079B1, “Moxifloxacin formulation containing common salt” (Bayer Aktiengesellschaft, priority 1999, dated 2003).
Counter-ions that a name gives are not always drawn.

Tests used:
physchem = details: water (aqueous solution without NaCl)
[1] = Solubility of moxifloxacin HCl in the presence of sodium chloride; format: physicochemical; details: for Solubility moxifloxacin HCl: 5° C.; for solubility thermodynamic: sodium chloride solution, 5 °C, thermodynamic from solid
Description: For a dosage range of from 100 mg to 1000 mg at active compound concentrations of from 0.04% to 0.4% (w/v) of moxifloxacin hydrochloride, it is thus possible to adjust the osmotic pressure to physiological conditions by adding from 0.4% to 0.9% of sodium chloride. […] This ensures that, even on short-term cold storage, there is no precipitation of the active compound as a result of exceeding the saturation solubilities. [table]

solubility thermodynamic (physchem): ~24000 µg/mL
Solubility moxifloxacin HCl ([1]; NaCl 0.7 % (w/v)): 0.2 % (w/v)
Solubility moxifloxacin HCl ([1]; NaCl 0.8 % (w/v)): 0.2 % (w/v)
solubility thermodynamic ([1]; saline or isotonic, NaCl 0.1 % (w/v)): 11000 µg/mL
solubility thermodynamic ([1]; saline or isotonic, NaCl 0.2 % (w/v)): 7000 µg/mL
solubility thermodynamic ([1]; saline or isotonic, NaCl 0.3 % (w/v)): 5000 µg/mL
solubility thermodynamic ([1]; saline or isotonic, NaCl 0.4 % (w/v)): 4000 µg/mL
solubility thermodynamic ([1]; saline or isotonic, NaCl 0.5 % (w/v)): 3000 µg/mL
solubility thermodynamic ([1]; saline or isotonic, NaCl 0.6 % (w/v)): 2000 µg/mL
solubility thermodynamic ([1]; saline or isotonic, NaCl 0.9 % (w/v)): 1000 µg/mL
solubility thermodynamic ([1]; water, NaCl 0 % (w/v)): 18000 µg/mL
Structure (SMILES): COc1c(N2C[C@@H]3CCCN[C@@H]3C2)c(F)cc2c(=O)c(C(=O)O)cn(C3CC3)c12 [moxifloxacin HCl, 1-cyclopropyl-7-([S,S]-2,8-diazabicyclo[4.3.0]non-8-yl)-6-fluoro-1,4-dihydro-8-methoxy-4-oxo-3-quinolonecarboxylic acid]
